Results reported in ChEMBL document CHEMBL1201862, “PubChem BioAssay data set” (2004).
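Results reflect a 48-hour exposure of cells in 96-well plates to compound at five concentrations. Abbreviation: GI50, concentration required for 50% inhibition of growth.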 Calls of active or inactive are those of the source. Rule as the data show it: active = GI50 up to about 1.1 µM and inactive = higher.

Assays:
Test in all cases: DTP human tumour cell line panel, 48 h
786-0 = test system: 786-0
A498 = test system: A498
A549 = test system: A549
ACHN = test system: ACHN
BT-549 = test system: BT-549
CAKI-1 = test system: CAKI-1
CCRF-CEM = test system: CCRF-CEM
COLO 205 = test system: COLO 205
DU-145 = test system: DU-145
EKVX = test system: EKVX
HCC 2998 = test system: HCC 2998
HCT-116 = test system: HCT-116
HCT-15 = test system: HCT-15
HL-60 = test system: HL-60
HOP-62 = test system: HOP-62
HOP-92 = test system: HOP-92
HT-29 = test system: HT-29
Hs-578T = test system: Hs-578T
IGROV-1 = test system: IGROV-1
KM12 = test system: KM12
LOX IMVI = test system: LOX IMVI
M14 = test system: M14
MCF7 = test system: MCF7
MDA-MB-231 = test system: MDA-MB-231
MDA-MB-435 = test system: MDA-MB-435
MDA-N = test system: MDA-N
MOLT-4 = test system: MOLT-4
Malme-3M = test system: Malme-3M
NCI-H226 = test system: NCI-H226
NCI-H23 = test system: NCI-H23
NCI-H460 = test system: NCI-H460
NCI-H522 = test system: NCI-H522
NCI/ADR-RES = test system: NCI/ADR-RES
OVCAR-3 = test system: OVCAR-3
OVCAR-4 = test system: OVCAR-4
OVCAR-5 = test system: OVCAR-5
OVCAR-8 = test system: OVCAR-8
PC-3 = test system: PC-3
RPMI-8226 = test system: RPMI-8226
SF-268 = test system: SF-268
SF-295 = test system: SF-295
SF-539 = test system: SF-539
SK-MEL-28 = test system: SK-MEL-28
SK-MEL-2 = test system: SK-MEL-2
SK-MEL-5 = test system: SK-MEL-5
SK-OV-3 = test system: SK-OV-3
SN12C = test system: SN12C
SNB-19 = test system: SNB-19
SNB-75 = test system: SNB-75
SR = test system: SR
SW-620 = test system: SW-620
T47D = test system: T47D
TK-10 = test system: TK-10
U-251 = test system: U-251
UACC-257 = test system: UACC-257
UACC-62 = test system: UACC-62
K562 = test system: K562
RXF 393 = test system: RXF 393
UO-31 = test system: UO-31

`CN(C)c1ccc(/C=N/n2c(-c3ccccc3)nc3ccccc3c2=O)cc1` was tested, and the GI50 (786-0) was > 100 µM (inactive), the GI50 (A498) was > 100 µM (inactive) and the GI50 (A549) was 53.5 µM (inactive). For the same compound, the GI50 (ACHN) was 18.5 µM (inactive), the GI50 (BT-549) was 65.8 µM (inactive) and the GI50 (CAKI-1) was 29.7 µM (inactive). For the same compound, the GI50 (CCRF-CEM) was 46.8 µM (inactive), the GI50 (COLO 205) was 48.5 µM (inactive) and the GI50 (DU-145) was > 100 µM (inactive). The GI50 (EKVX) was > 100 µM (inactive), the GI50 (HCC 2998) was > 100 µM (inactive) and the GI50 (HCT-116) was 50.6 µM (inactive). For the same compound, the GI50 (HCT-15) was 27.5 µM, the GI50 (HL-60) was 40 µM (inactive) and the GI50 (HOP-62) was > 100 µM (inactive). For the same compound, the GI50 (HOP-92) was 90.8 µM (inactive), the GI50 (HT-29) was 40 µM (inactive) and the GI50 (Hs-578T) was 20 µM (inactive). The GI50 (IGROV-1) was > 100 µM (inactive), the GI50 (KM12) was 24.8 µM (inactive) and the GI50 (LOX IMVI) was 80.2 µM (inactive). For the same compound, the GI50 (M14) was 79.6 µM (inactive), the GI50 (MCF7) was > 100 µM (inactive) and the GI50 (MDA-MB-231) was 30 µM (inactive). For the same compound, the GI50 (MDA-MB-435) was 79.4 µM (inactive), the GI50 (MDA-N) was 43.1 µM (inactive) and the GI50 (MOLT-4) was 34.4 µM (inactive). The GI50 (Malme-3M) was > 100 µM (inactive), the GI50 (NCI-H226) was 71.6 µM (inactive) and the GI50 (NCI-H23) was 28.3 µM (inactive). The GI50 (NCI-H460) was 35.4 µM (inactive), the GI50 (NCI-H522) was 49.3 µM (inactive) and the GI50 (NCI/ADR-RES) was 21.8 µM (inactive). For the same compound, the GI50 (OVCAR-3) was > 100 µM (inactive), the GI50 (OVCAR-4) was 47.9 µM (inactive) and the GI50 (OVCAR-5) was > 100 µM (inactive). For the same compound, the GI50 (OVCAR-8) was 41.6 µM (inactive), the GI50 (PC-3) was 24.5 µM (inactive) and the GI50 (RPMI-8226) was 20.4 µM (inactive). The GI50 (SF-268) was 44 µM (inactive), the GI50 (SF-295) was > 100 µM (inactive) and the GI50 (SF-539) was > 100 µM (inactive). The GI50 (SK-MEL-28) was > 100 µM (inactive), the GI50 (SK-MEL-2) was 82.2 µM (inactive) and the GI50 (SK-MEL-5) was 33.3 µM (inactive). For the same compound, the GI50 (SK-OV-3) was 80.5 µM (inactive), the GI50 (SN12C) was 80.9 µM (inactive) and the GI50 (SNB-19) was 40.8 µM (inactive). The GI50 (SNB-75) was 24.4 µM (inactive), the GI50 (SR) was 14.1 µM (inactive) and the GI50 (SW-620) was > 100 µM (inactive). For the same compound, the GI50 (T47D) was 15 µM (inactive), the GI50 (TK-10) was 81.7 µM (inactive) and the GI50 (U-251) was 63.4 µM (inactive). For the same compound, the GI50 (UACC-257) was > 100 µM (inactive) and the GI50 (UACC-62) was 58.9 µM (inactive).

`COc1cc2ccc(/C=C\[N+](=O)[O-])cc2cc1OC` was tested, and the GI50 (786-0) was 1.68 µM (inactive), the GI50 (A498) was 15.5 µM (inactive) and the GI50 (A549) was 11.4 µM (inactive). The GI50 (ACHN) was 1.81 µM (inactive), the GI50 (BT-549) was 2.32 µM (inactive) and the GI50 (CAKI-1) was 5.06 µM (inactive). The GI50 (CCRF-CEM) was 1.44 µM (inactive), the GI50 (COLO 205) was 4.07 µM (inactive) and the GI50 (DU-145) was 2.16 µM (inactive). For the same compound, the GI50 (EKVX) was 4.3 µM (inactive), the GI50 (HCC 2998) was 3.44 µM (inactive) and the GI50 (HCT-116) was 2.34 µM (inactive). For the same compound, the GI50 (HCT-15) was 3.21 µM, the GI50 (HL-60) was 1.97 µM (inactive) and the GI50 (HOP-62) was 2.83 µM (inactive). The GI50 (HOP-92) was 4.41 µM (inactive), the GI50 (HT-29) was 2 µM (inactive) and the GI50 (Hs-578T) was 7.69 µM (inactive). For the same compound, the GI50 (IGROV-1) was 1.97 µM (inactive), the GI50 (K562) was 2.39 µM (inactive) and the GI50 (KM12) was 6.85 µM (inactive). The GI50 (LOX IMVI) was 1.79 µM (inactive), the GI50 (M14) was 2.65 µM (inactive) and the GI50 (MCF7) was 2.24 µM (inactive). For the same compound, the GI50 (MDA-MB-231) was 2.84 µM (inactive), the GI50 (MDA-MB-435) was 2.86 µM (inactive) and the GI50 (MDA-N) was 2.18 µM (inactive). The GI50 (MOLT-4) was 5.09 µM (inactive), the GI50 (NCI-H226) was 27.7 µM (inactive) and the GI50 (NCI-H23) was 2.5 µM (inactive). The GI50 (NCI-H460) was 15.7 µM (inactive), the GI50 (NCI-H522) was 1.13 µM (inactive) and the GI50 (NCI/ADR-RES) was 6.43 µM (inactive). The GI50 (OVCAR-3) was 3.5 µM (inactive), the GI50 (OVCAR-4) was 3.04 µM (inactive) and the GI50 (OVCAR-5) was 13.1 µM (inactive). For the same compound, the GI50 (OVCAR-8) was 3.12 µM (inactive), the GI50 (PC-3) was 2.58 µM (inactive) and the GI50 (RPMI-8226) was 1.67 µM (inactive). The GI50 (RXF 393) was 1.87 µM (inactive), the GI50 (SF-268) was 3.36 µM (inactive) and the GI50 (SF-295) was 18.2 µM (inactive). For the same compound, the GI50 (SF-539) was 1.97 µM (inactive), the GI50 (SK-MEL-28) was 2.66 µM (inactive) and the GI50 (SK-MEL-2) was 2.86 µM (inactive). The GI50 (SK-MEL-5) was 4.76 µM (inactive), the GI50 (SK-OV-3) was 14.3 µM (inactive) and the GI50 (SN12C) was 2.37 µM (inactive). For the same compound, the GI50 (SNB-19) was 7.52 µM (inactive), the GI50 (SNB-75) was 2.48 µM (inactive) and the GI50 (SR) was 1.98 µM (inactive). For the same compound, the GI50 (SW-620) was 2.65 µM (inactive), the GI50 (T47D) was 2.92 µM (inactive) and the GI50 (TK-10) was 3.08 µM (inactive). For the same compound, the GI50 (U-251) was 2.65 µM (inactive), the GI50 (UACC-257) was 3.11 µM (inactive) and the GI50 (UACC-62) was 5.15 µM (inactive). For the same compound, the GI50 (UO-31) was 1.82 µM (inactive).

For `NP(=O)(OCC1=CC(=O)c2ccccc2C1=O)N(CCBr)CCBr` (configuration not stated), the GI50 (786-0) was 5.82 µM (inactive), the GI50 (A498) was 20.8 µM (inactive) and the GI50 (A549) was 4.17 µM (inactive). For the same compound, the GI50 (ACHN) was 1.44 µM (inactive), the GI50 (BT-549) was 2.09 µM (inactive) and the GI50 (CAKI-1) was 0.843 µM (active). The GI50 (CCRF-CEM) was 1.2 µM (inactive), the GI50 (COLO 205) was 2.2 µM (inactive) and the GI50 (DU-145) was 5.04 µM (inactive). For the same compound, the GI50 (EKVX) was 15.3 µM (inactive), the GI50 (HCC 2998) was 16 µM (inactive) and the GI50 (HCT-116) was 9.55 µM (inactive). The GI50 (HCT-15) was 5.13 µM, the GI50 (HL-60) was 0.863 µM (active) and the GI50 (HOP-92) was 13.3 µM (inactive). The GI50 (HT-29) was 11.1 µM (inactive), the GI50 (Hs-578T) was 31.5 µM (inactive) and the GI50 (IGROV-1) was 12.6 µM (inactive). For the same compound, the GI50 (K562) was 3.05 µM (inactive), the GI50 (KM12) was 8.65 µM (inactive) and the GI50 (LOX IMVI) was 3.96 µM (inactive). For the same compound, the GI50 (M14) was 2.01 µM (inactive), the GI50 (MCF7) was 2.07 µM (inactive) and the GI50 (MDA-MB-231) was 11.4 µM (inactive). The GI50 (MDA-MB-435) was 2.14 µM (inactive), the GI50 (MDA-N) was 1.65 µM (inactive) and the GI50 (MOLT-4) was 0.634 µM (active). For the same compound, the GI50 (Malme-3M) was 0.979 µM (active), the GI50 (NCI-H226) was 6.58 µM (inactive) and the GI50 (NCI-H23) was 3.03 µM (inactive). For the same compound, the GI50 (NCI-H460) was 1.79 µM (inactive), the GI50 (NCI-H522) was 2.31 µM (inactive) and the GI50 (NCI/ADR-RES) was 8.49 µM (inactive). For the same compound, the GI50 (OVCAR-3) was 3.02 µM (inactive), the GI50 (OVCAR-4) was 16.4 µM (inactive) and the GI50 (OVCAR-5) was 22.3 µM (inactive). The GI50 (OVCAR-8) was 12.1 µM (inactive), the GI50 (PC-3) was 10.9 µM (inactive) and the GI50 (RPMI-8226) was 11.6 µM (inactive). The GI50 (RXF 393) was 7.4 µM (inactive), the GI50 (SF-268) was 11.2 µM (inactive) and the GI50 (SF-295) was 8.81 µM (inactive). For the same compound, the GI50 (SF-539) was 3.99 µM (inactive), the GI50 (SK-MEL-28) was 4.23 µM (inactive) and the GI50 (SK-MEL-2) was 4.26 µM (inactive). The GI50 (SK-MEL-5) was 1.31 µM (inactive), the GI50 (SK-OV-3) was 14.3 µM (inactive) and the GI50 (SN12C) was 10.6 µM (inactive). The GI50 (SNB-19) was 18.3 µM (inactive), the GI50 (SNB-75) was 7.26 µM (inactive) and the GI50 (SR) was 0.399 µM (active). For the same compound, the GI50 (SW-620) was 2.32 µM (inactive), the GI50 (T47D) was 3.48 µM (inactive) and the GI50 (TK-10) was 17.2 µM (inactive). For the same compound, the GI50 (U-251) was 11.5 µM (inactive), the GI50 (UACC-257) was 1.87 µM (inactive) and the GI50 (UACC-62) was 2.24 µM (inactive). For the same compound, the GI50 (UO-31) was 11.2 µM (inactive).
